Reference: PubChem BioAssay AID1919009 (Molecular Pharmacology Branch, DTP, NCI, 2023)

Tested on: K24384-001-R-PDC complex spheroid growth
Experiment: Anticancer human tumor K24384-001-R-PDC patient-derived pancreatic adenocarcinoma cell line growth inhibition [AhR]
Details: for IC50: curve of first compound; for viability, T/C: stronger effect = lower value
Procedure, shortened: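 Spheroids combined tumor cells with HUVEC endothelial cells and human MSCs as stroma. AhR antagonists were paired with standard or investigational drugs, each dosed in half-log steps down from near clinical Cmax, or from 10 microM where Cmax was unknown.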

[1] = second compound 0.1 µM, first compound 0.0316 µM
[2] = second compound 0.1 µM, first compound 0.1 µM
[3] = second compound 0.1 µM, first compound 0.316 µM
[4] = second compound 0.1 µM, first compound 1 µM
[5] = second compound 0.1 µM, first compound 3.16 µM
[6] = second compound 0.1 µM, first compound 10 µM
[7] = second compound 0.316 µM, first compound 0.0316 µM
[8] = second compound 0.316 µM, first compound 0.1 µM
[9] = second compound 0.316 µM, first compound 0.316 µM
[10] = second compound 0.316 µM, first compound 1 µM
[11] = second compound 0.316 µM, first compound 3.16 µM
[12] = second compound 0.316 µM, first compound 10 µM
[13] = second compound 1 µM, first compound 0.0316 µM
[14] = second compound 1 µM, first compound 0.1 µM
[15] = second compound 1 µM, first compound 0.316 µM
[16] = second compound 1 µM, first compound 1 µM
[17] = second compound 1 µM, first compound 3.16 µM
[18] = second compound 1 µM, first compound 10 µM
[19] = second compound 3.16 µM, first compound 0.0316 µM
[20] = second compound 3.16 µM, first compound 0.1 µM
[21] = second compound 3.16 µM, first compound 0.316 µM
[22] = second compound 3.16 µM, first compound 1 µM
[23] = second compound 3.16 µM, first compound 3.16 µM
[24] = second compound 3.16 µM, first compound 10 µM
[25] = second compound 10 µM, first compound 0.0316 µM
[26] = second compound 10 µM, first compound 0.1 µM
[27] = second compound 10 µM, first compound 0.316 µM
[28] = second compound 10 µM, first compound 1 µM
[29] = second compound 10 µM, first compound 3.16 µM
[30] = second compound 10 µM, first compound 10 µM
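Throughout, for viability, T/C: percent of DMSO vehicle-treated spheroid viability set as 100%.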

**Q.** With Nc1ncn(C2CC(O)C(CO)S2)c(=O)n1 (stereo not given) + Cc1ccccc1N=Nc1ccc(NC(=O)c2ccnn2C)c(C)c1 as the compound, how does the IC50 (second compound 0.1 µM) read?
**A.** The IC50 was greater than 300 nM.

**Q.** What about the IC50 (second compound 0.316 µM) of the same compound?
**A.** The IC50 was greater than 300 nM.

**Q.** And the IC50 (second compound 1 µM)?
**A.** Its IC50 is greater than 300 nM.

**Q.** And the IC50 (second compound 3.16 µM)?
**A.** The IC50 was greater than 300 nM.

**Q.** What about the IC50 (second compound 10 µM) of the same compound?
**A.** Its IC50 is greater than 300 nM.

**Q.** And the viability, T/C (second compound 0.1 µM, first compound 0.000949 µM)?
**A.** Its viability, T/C is 92.5%.

**Q.** And the viability, T/C (second compound 0.1 µM, first compound 0.003 µM)?
**A.** The viability, T/C was 103%.

**Q.** And the viability, T/C (second compound 0.1 µM, first compound 0.00949 µM)?
**A.** Its viability, T/C is 105%.

**Q.** And the viability, T/C (second compound 0.1 µM, first compound 0.03 µM)?
**A.** Its viability, T/C is 79.3%.

**Q.** What about the viability, T/C (second compound 0.1 µM, first compound 0.0949 µM) of the same compound?
**A.** Its viability, T/C is 66%.

**Q.** What about the viability, T/C (second compound 0.1 µM, first compound 0.3 µM) of the same compound?
**A.** Its viability, T/C is 57.8%.

**Q.** And the viability, T/C (second compound 0.316 µM, first compound 0.000949 µM)?
**A.** The viability, T/C was 111%.

**Q.** And the viability, T/C (second compound 0.316 µM, first compound 0.003 µM)?
**A.** The viability, T/C was 99.7%.

**Q.** And the viability, T/C (second compound 0.316 µM, first compound 0.00949 µM)?
**A.** Its viability, T/C is 88.4%.

**Q.** And the viability, T/C (second compound 0.316 µM, first compound 0.03 µM)?
**A.** Its viability, T/C is 66.2%.

**Q.** And the viability, T/C (second compound 0.316 µM, first compound 0.0949 µM)?
**A.** The viability, T/C was 65.8%.

**Q.** What about the viability, T/C (second compound 0.316 µM, first compound 0.3 µM) of the same compound?
**A.** Its viability, T/C is 54.5%.

**Q.** And the viability, T/C (second compound 1 µM, first compound 0.000949 µM)?
**A.** Its viability, T/C is 99.3%.

**Q.** What about the viability, T/C (second compound 1 µM, first compound 0.003 µM) of the same compound?
**A.** The viability, T/C was 82%.

**Q.** And the viability, T/C (second compound 1 µM, first compound 0.00949 µM)?
**A.** Its viability, T/C is 68.7%.

**Q.** And the viability, T/C (second compound 1 µM, first compound 0.03 µM)?
**A.** The viability, T/C was 78.9%.

**Q.** And the viability, T/C (second compound 1 µM, first compound 0.0949 µM)?
**A.** Its viability, T/C is 61.5%.

**Q.** And the viability, T/C (second compound 1 µM, first compound 0.3 µM)?
**A.** The viability, T/C was 58%.

**Q.** And the viability, T/C (second compound 3.16 µM, first compound 0.000949 µM)?
**A.** The viability, T/C was 86.6%.

**Q.** And the viability, T/C (second compound 3.16 µM, first compound 0.003 µM)?
**A.** Its viability, T/C is 83.3%.

**Q.** What about the viability, T/C (second compound 3.16 µM, first compound 0.00949 µM) of the same compound?
**A.** Its viability, T/C is 92.6%.

**Q.** And the viability, T/C (second compound 3.16 µM, first compound 0.03 µM)?
**A.** Its viability, T/C is 63.5%.

**Q.** And the viability, T/C (second compound 3.16 µM, first compound 0.0949 µM)?
**A.** Its viability, T/C is 53.1%.

**Q.** What about the viability, T/C (second compound 3.16 µM, first compound 0.3 µM) of the same compound?
**A.** The viability, T/C was 46.9%.

**Q.** And the viability, T/C (second compound 10 µM, first compound 0.000949 µM)?
**A.** Its viability, T/C is 100%.

**Q.** What about the viability, T/C (second compound 10 µM, first compound 0.003 µM) of the same compound?
**A.** The viability, T/C was 103%.

**Q.** What about the viability, T/C (second compound 10 µM, first compound 0.00949 µM) of the same compound?
**A.** The viability, T/C was 87.4%.

**Q.** And the viability, T/C (second compound 10 µM, first compound 0.03 µM)?
**A.** Its viability, T/C is 82.8%.

**Q.** What about the viability, T/C (second compound 10 µM, first compound 0.0949 µM) of the same compound?
**A.** The viability, T/C was 72.4%.

**Q.** And the viability, T/C (second compound 10 µM, first compound 0.3 µM)?
**A.** The viability, T/C was 60.7%.

**Q.** What does the source list for CC1COCCN1c1cc(C2(S(C)(=N)=O)CC2)nc(-c2ccnc3[nH]ccc23)n1 (stereo not given) + Cc1cncc(-c2nc(NCCc3c[nH]c4ccccc34)c3ncn(C(C)C)c3n2)c1?
**A.** IC50 (second compound 0.1 µM): 3220 nM; IC50 (second compound 0.316 µM): 4430 nM; IC50 (second compound 1 µM): 4740 nM; IC50 (second compound 3.16 µM): 1270 nM; IC50 (second compound 10 µM): < 31.6 nM; viability, T/C [1]: 97.7%; viability, T/C [2]: 105%; viability, T/C [3]: 105%; viability, T/C [4]: 84.1%; viability, T/C [5]: 51.2%; viability, T/C [6]: 32.2%; viability, T/C [7]: 94.7%; viability, T/C [8]: 102%; viability, T/C [9]: 96.3%; viability, T/C [10]: 87.3%; viability, T/C [11]: 58.8%; viability, T/C [12]: 29.1%; viability, T/C [13]: 116%; viability, T/C [14]: 113%; viability, T/C [15]: 118%; viability, T/C [16]: 95%; viability, T/C [17]: 61.1%; viability, T/C [18]: 31.1%; viability, T/C [19]: 80.6%; viability, T/C [20]: 74.8%; viability, T/C [21]: 70%; viability, T/C [22]: 52%; viability, T/C [23]: 37.8%; viability, T/C [24]: 25.9%; viability, T/C [25]: 10.3%; viability, T/C [26]: 11.3%; viability, T/C [27]: 11.8%; viability, T/C [28]: 11.8%; viability, T/C [29]: 8.29%; viability, T/C [30]: 10.9%

**Q.** What does the source list for COc1cccc2c1C(=O)c1c(O)c3c(c(O)c1C2=O)CC(O)(C(=O)CO)CC3OC1CC(N)C(O)C(C)O1 (stereo not given) + Cc1ccccc1N=Nc1ccc(NC(=O)c2ccnn2C)c(C)c1?
**A.** IC50 (second compound 0.1 µM): 68.9 nM; IC50 (second compound 0.316 µM): 54.7 nM; IC50 (second compound 1 µM): < 31.6 nM; IC50 (second compound 3.16 µM): < 31.6 nM; IC50 (second compound 10 µM): 50.4 nM; viability, T/C [1]: 57.9%; viability, T/C [2]: 45.7%; viability, T/C [3]: 22.5%; viability, T/C [4]: 7.05%; viability, T/C [5]: 3.16%; viability, T/C [6]: 7.56%; viability, T/C [7]: 53.7%; viability, T/C [8]: 46%; viability, T/C [9]: 19%; viability, T/C [10]: 8.11%; viability, T/C [11]: 2.84%; viability, T/C [12]: 8.04%; viability, T/C [13]: 42%; viability, T/C [14]: 42%; viability, T/C [15]: 12.8%; viability, T/C [16]: 7.59%; viability, T/C [17]: 2.46%; viability, T/C [18]: 8.88%; viability, T/C [19]: 47.6%; viability, T/C [20]: 40.1%; viability, T/C [21]: 14.3%; viability, T/C [22]: 2.98%; viability, T/C [23]: 6.7%; viability, T/C [24]: 6.51%; viability, T/C [25]: 55.9%; viability, T/C [26]: 41.3%; viability, T/C [27]: 9.04%; viability, T/C [28]: 8.14%; viability, T/C [29]: 3.61%; viability, T/C [30]: 9.36%
